system: PMA-differentiated THP-1 cells; assay: IL-1β production in PMA-differentiated THP-1 cells stimulated with gramicidin (hTHP-1 assay containing 2% fetal bovine serum; Procedures 1 and 2); type: cell-based, human; settings: Homo sapiens, THP-1, Table B2; 2% fetal bovine serum; class symbols; read-out: hTHP-1 IC50
Procedure, shortened: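 Compound titrations in 0.37% final DMSO were added to THP-1 cells that had been plated after 16-18 h PMA treatment, 50,000 per well in 2% FBS. One hour later the cells received gramicidin (5 μM, 2 h) and were centrifuged. HTRF detected IL-1β in the collected supernatants.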

Question: How did the IC50 turn out when `CC(C)(O)c1csc(S(N)(=O)=NC(=O)Nc2cc(CC(F)(F)F)nc3c2CCC3)c1` (single isomer, unassigned) [Compound 607b, (R) or (S)-4-(2-Hydroxypropan-2-yl)-N′-((2-(2,2,2-trifluoroethyl)-6,7-dihydro-5H-cyclopenta[b]pyridin-4-yl)carbamoyl) thiophene-2-sulfonimidamide] was run?
Answer: 1 to 5 µM

same assay, conditions: Homo sapiens, THP-1, Table B2; 2% fetal bovine serum; numeric bounds; read-out: hTHP-1 IC50

Question: How did the IC50 turn out when `Cc1c(C(F)(F)F)nc2c(c1NC(=O)N=S(N)(=O)c1cnc(C(C)(O)CO)s1)CCC2` (single isomer, unassigned) [Compound 605d, (R, S) and (S, S) or (R, R) and (S, R)-2-(l,2-Dihydroxypropan-2-yl)-N′-((3-methyl-2-(trifluoromethyl)-6,7-dihydro-5H-cyclopenta[b]pyridin-4-yl)carbamoyl) thiazole-5-sulfonimidamide] was run?
Answer: > 30 µM

Question: For `CC(C)(O)c1csc(S(N)(=O)=NC(=O)Nc2cc(CC(F)(F)F)nc3c2CCC3)c1` (single isomer, unassigned) [Compound 607a, (S) or (R)-4-(2-Hydroxypropan-2-yl)-N′-((2-(2,2,2-trifluoroethyl)-6,7-dihydro-5H-cyclopenta[b]pyridin-4-yl)carbamoyl) thiophene-2-sulfonimidamide], which IC50 is on record?
Answer: > 30 µM

same assay, conditions: Table B2; 2% fetal bovine serum; class symbols; read-out: hTHP-1 IC50

Question: With `Cc1c(C(F)(F)F)nc2c(c1NC(=O)N=S(N)(=O)c1cnc(C(C)(O)CO)s1)CCC2` (single isomer, unassigned) [Compound 605c] as the compound, how does the IC50 read?
Answer: 0.2 to 1 µM

Question: How did the IC50 turn out when `Cc1c(C(F)(F)F)nc2c(c1NC(=O)N=S(N)(=O)c1cnc(C(C)(O)CO)s1)CCC2` (single isomer, unassigned) [Compound 605e, (R, S) or (S, S)-2-(1,2-Dihydroxypropan-2-yl)-N′-((3-methyl-2-(trifluoromethyl)-6,7-dihydro-5H-cyclopenta[b]pyridin-4-yl)carbamoyl) thiazole-5-sulfonimidamide] was run?
Answer: 5 to 30 µM

Question: Which IC50 does the source give for `Cc1c(C(F)(F)F)nc2c(c1NC(=O)N=S(N)(=O)c1cnc(C(C)(O)CO)s1)CCC2` (single isomer, unassigned) [Compound 605g, (S, S) or (R, S)-2-(1,2-Dihydroxypropan-2-yl)-N′-((3-methyl-2-(trifluoromethyl)-6,7-dihydro-5H-cyclopenta[b]pyridin-4-yl)carbamoyl) thiazole-5-sulfonimidamide] here?
Answer: 5 to 30 µM

Question: For `Cc1c(C(F)(F)F)nc2c(c1NC(=O)N=S(N)(=O)c1cnc(C(C)(O)CO)s1)CCC2` (single isomer, unassigned) [Compound 605h, (S, R) or (R, R)-2-(1,2-Dihydroxypropan-2-yl)-N′-((3-methyl-2-(trifluoromethyl)-6,7-dihydro-5H-cyclopenta[b]pyridin-4-yl)carbamoyl) thiazole-5-sulfonimidamide], which IC50 is on record?
Answer: 0.2 to 1 µM

Question: For `Cc1c(C(F)(F)F)nc2c(c1NC(=O)N=S(N)(=O)c1cnc(C(C)(C)O)s1)CCC2C` (single isomer, unassigned) [Compound 608c], which IC50 is on record?
Answer: 0.2 to 1 µM

Question: Which IC50 does the source give for `CCc1c(C(F)(F)F)nc2c(c1NC(=O)N=S(N)(=O)c1cnc(C(C)(C)O)s1)CCC2` (single isomer, unassigned) [Compound 610a, (R) or (S)-N′-((3-ethyl-2-(trifluoromethyl)-6,7-dihydro-5H-cyclopenta[b]pyridin-4-yl)carbamoyl)-2-(2-hydroxypropan-2-yl)thiazole-5-sulfonimidamide] here?
Answer: 1 to 5 µM

Question: For `CCc1c(C(F)(F)F)nc2c(c1NC(=O)N=S(N)(=O)c1cnc(C(C)(C)O)s1)CCC2` (single isomer, unassigned) [Compound 610b, (S) or (R)-N′-((3-ethyl-2-(trifluoromethyl)-6,7-dihydro-5H-cyclopenta[b]pyridin-4-yl)carbamoyl)-2-(2-hydroxypropan-2-yl)thiazole-5-sulfonimidamide], which IC50 is on record?
Answer: 5 to 30 µM

Question: How did the IC50 turn out when `CCc1c(C(F)(F)F)nc2c(c1NC(=O)N=S(N)(=O)c1sc(C(C)(C)O)cc1F)CCC2` (single isomer, unassigned) [Compound 611a, (S) or (R)-N′-((3-ethyl-2-(trifluoromethyl)-6,7-dihydro-5H-cyclopenta[b]pyridin-4-yl)carbamoyl)-3-fluoro-5-(2-hydroxypropan-2-yl)thiophene-2-sulfonimidamide] was run?
Answer: 5 to 30 µM
